From patent publication US8846670B2, “1,2,3,4-tetrahydro-pyrimido(1,2-a)pyrimidin-6-one derivatives, preparation thereof, and pharmaceutical use thereof” (priority 2009, dated 2014)

Tests used:
Format in all cases: cell-based
[1] = test system: translocation of the LC3 protein in Hela GFP-LC3 cells; assay: Study of the translocation of the LC3 protein in Hela human cells, measured by image analysis cytometry (Test C, autophagy); conditions: Homo sapiens, HeLa, 2 h, Hela GFP-LC3 cells with LC3 granulations, EBSS + 10 μM hydroxychloroquine, absolute IC50
Experimental: The inhibitory activity of the molecules on autophagy is measured by the translocation of the LC3 protein from the cytoplasm to the autophagosomes. For this, Hela cells were transfected with a vector encoding the chimeric protein GFP-LC3. A Hela clone stably expressing the GFP-LC3 protein was selected.
Study of the Translocation of the LC3 Protein in Hela Human Cells, Measured by Image Analysis Cytometry (Test C):
On day 2, the cells are washed twice with EBSS (Sigma #E3024). The cells are then incubated in EBSS, 10 μM of hydroxychloroquine and test products for 2 h at 37° C. in the presence of 5% CO2. The molecules are diluted in dimethyl sulphoxide (DMSO Sigma #D2650), the final DMSO percentage being 0.1%.
After this incubation, the cells are fixed with 4% paraformaldehyde (Sigma #HT501128 4 L) for 10 min. […] The 96-well plates are then read with the iCyte image analysis cytometer (Compucyte).
Two independent experiments make it possible to calculate the mean of the IC50 values.

[2] = test system: AKT protein phosphorylated on serine 473 (pAKT-S473) in PC3 human prostate carcinoma line; assay: Study of pAKT expression in PC3 human prostate carcinoma cells measured by western blotting (Test A); conditions: PC-3, 1 to 2 hours incubation, approximate absolute IC50, mean of two experiments
Experimental: The inhibitory activity of the molecules on AKT phosphorylation is measured either by western blotting using the technique described below, or by the MSD Multi-spot Biomarker detection technique from Meso Scale Discovery also described below. […] Study of pAKT Expression in Pc3Human Prostate Carcinoma Cells Measured by Western Blotting (Test A): This test is based on measuring the expression of the AKT protein phosphorylated on […]. […] On day 2, the cells are incubated in the presence or absence of the test products for 1 to 2 hours at 37° C. in the presence of 5% CO2. The molecules, diluted in dimethyl sulphoxide (DMSO Sigma #D2650), are added from a 10-times concentrated stock solution, the final percentage of DMSO being 0.1%. […] After this incubation, the cells are lysed for the preparation of the proteins. […] The lysate is centrifuged for 10 min at 6000 rpm. 155 μl of supernatant are recovered. 150 μl are incubated for denaturation for 5 min at 95° C. in the presence of 4× NuPAGE LDS Sample Buffer diluted 4-fold (InVitrogen ref NP0007) and of 10× NuPAGE Sample Reducing Agent diluted 10-fold (InVitrogen ref NP0009). These samples are then frozen at -20° C. […] The gel is then transferred on to an Invitrolon PVDF membrane (Invitrogen #LC2007) permeabilised beforehand for a few seconds in ethanol (Ethanol Fischer Scientific #E/0600DF/15). The transfer is carried out in a Biorad tank at 30 volts overnight or at 60 volts for 3 hours, in the presence of 20× NUPAGE Transfer Buffer diluted 20-fold (InVitrogen ref NP0006). The membrane is then saturated in saturating solution composed of TBS (10× Tris Buffered Saline, Sigma #T5912, diluted 10-fold), 0.1% Tween 20 (Sigma #P5927) and 3% BSA (Bovine Serum Albumin Fraction V, Sigma #A4503) for 6 h after overnight transfer or else for 1 h after transfer for a period of 3 h. […] Two rinses for 5 min in washing solution composed of TBS and 0.1% Tween 20 are carried out before hybridisation of the secondary antibodies. The secondary antibodies are diluted to 1/10000th for the rabbit anti-Mouse IgG HRP antibody ([…] Promega) and to 1/10000th for the goat anti-Rabbit IgG HRP antibody ([…] Promega) in saturating solution, and then shaken for 1 h at ambient temperature. Two rinses for 30 min in washing solution are carried out and then a rinse for 5 min in H2O is carried out in order to eliminate the remaining Tween 20. […] The luminescence is read with the FujiFilm device (Ray Test). The FUJI device measures the total luminescence signal obtained (AU) for each band selected. It then subtracts the background noise (BG) proportional to the size of the band selected (Area), said background noise being calculated from a specific background noise band, with a view to obtaining the specific signal (AU-BG) for each band. The band obtained in the absence of product and in the presence of 0.1% DMSO is considered to be the 100% signal. The software calculates the % specific activity (Ratio) obtained for each band selected as a function of this 100% signal. The percentage inhibition is calculated for each concentration according to the formula (100%-Ratio). Two independent experiments make it possible to calculate the mean of the percentages of inhibition obtained at a given concentration for the products tested only at one concentration. […] Two independent experiments make it possible to calculate the mean of the IC50 values.

[3] = test system: P. falciparum (highly chloroquine-resistant strain Fcm29-Cameroon); assay: Antimalarial activity test (radioactive micromethod of Desjardins); conditions: Plasmodium falciparum, Erythrocyte, infected human erythrocytes, 48 h, tritiated hypoxanthine incorporation
Experimental: Antimalarial Activity Test
The P. falciparum strains are cultured in solutions of RPM! […] For each assay, the parasites are incubated with selected concentrations of drugs for 48 h at 37° C. in a humid atmosphere and at 5% CO2. Artemisinin, artesunate and also chloroquine diphosphate are used as reference molecules. The first dilution of the drug is prepared at 1 mg/ml in dimethyl sulphoxide. The range of successive daughter solution dilutions is also prepared in dimethyl sulphoxide. […] These dilutions are then added to the parasites in culture in the microplates. […] The growth of the parasites is measured by incorporation of tritiated hypoxanthine (added 24 h after the beginning of the exposure to the drug) compared with the incorporation in the absence of drug.

[4] = test system: AKT protein phosphorylated on serine 473 (P-AKT-S473) in PC3 human prostate carcinoma line; assay: Study of pAKT expression in PC3 human prostate carcinoma cells measured by the MSD Multi-spot Biomarker Detection technique (Test B); conditions: Homo sapiens, PC-3, P-AKT-S473 in PC3 cells, MSD sandwich immunoassay, 1 to 2 h incubation; absolute IC50, mean of 2 experiments
Experimental: The inhibitory activity of the molecules on AKT phosphorylation is measured either by western blotting using the technique described below, or by the MSD Multi-spot Biomarker detection technique from Meso Scale Discovery also described below.
Study of pAKT Expression in PC3Human Prostate Carcinoma Cells Measured by the MSD Multi-Spot Biomarker Detection Technique from Meso Scale Discovery (Test B):
The primary antibody specific for P-AKT-S473 (Kit #K151CAD) is coated onto an electrode in each well of the 96-well plates of the MSD kit: after the addition of a protein lysate to each well, the signal is visualised by adding a secondary detection antibody labelled with an electrochemiluminescent compound. The procedure followed is that described in the kit.
On day 2, the cells are incubated in the presence or absence of the test products for 1 to 2 h at 37° C. in the presence of 5% of CO2. The molecules, diluted in dimethyl sulphoxide (DMSO Sigma #D2650), are added from a 20-times concentrated stock solution, the final percentage of DMSO being 0.1%.
After this incubation, the cells are lysed for the preparation of the proteins. […] At this stage, the plates containing the lysates can be frozen at −20° C. or at −80° C.
The wells of the 96-well plates of the MSD kit are saturated for 1 h at ambient temperature with the blocking solution of the MSD kit. Four washes are carried out with 150 μl of Tris Wash Buffer of the MSD kit. The lysates previously prepared are transferred into the 96-well multi-spot plates of the MSD kit and incubated for 1 h at ambient temperature, with shaking. Four washes are carried out with 150 μl of Tris Wash Buffer of the MSD kit. 25 μl of the MSD sulfo-tag detection antibody solution are added to the wells and incubated for 1 h at ambient temperature, with shaking. Four washes are carried out with 150 μl of Tris Wash Buffer of the MSD kit. 150 μl of Read Buffer of the MSD kit are added to the wells and the plates are read immediately on the S12400 instrument from Meso Scale Discovery.
The instrument measures a signal for each well. Wells without cells and containing the lysis buffer serve to determine the background noise that will be subtracted from all the measurements (min). The wells containing cells in the absence of product and in the presence of 0.1% DMSO are considered to be the 100% signal (max). The percentage inhibition is calculated for each concentration of test product according to the following formula: (1−((test−min)/(max−min)))×100.
2 independent experiments make it possible to calculate the mean of the IC50 values.

Row | IC50 [1] | IC50 [2] | IC50 [4] | Structure (SMILES) | inhibition at 0.1 µM [3] | inhibition at 1 µM [3]
1 | > 1000 nM | 60 nM | – | O=c1cc(N2CCOCC2)nc2n1CC[C@@H](C(F)(F)F)N2c1ccncc1 [Example 20, (S)-2-morpholin-4-yl-9-pyridin-4-yl-8-trifluoromethyl-6,7,8,9-tetrahydropyrimido[1,2-a]pyrimidin-4-one] | – | –
2 | 462 nM | 75 nM | – | C[C@@H](c1ccccc1)N1c2nc(N3CCOCC3)cc(=O)n2CC[C@H]1C(F)(F)F (single isomer, unassigned) [Example 8, (8S)-2-(morpholin-4-yl)-9-[(1R or 1S)-1-phenylethyl]-8-(trifluoromethyl)-6,7,8,9-tetrahydro-4H-pyrimido[1,2-a]pyrimidin-4-one] | – | –
3 | 632 nM | – | 25 nM | O=c1cc(N2CCOCC2)nc2n1CC[C@@H](C(F)(F)F)N2c1ccc(F)cc1 [Example 13, (8S)-9-(4-fluorophenyl)-2-(morpholin-4-yl)-8-(trifluoromethyl)-6,7,8,9-tetrahydro-4H-pyrimido[1,2-a]pyrimidin-4-one] | – | 52%
4 | 363 nM | – | 10 nM | COc1ccc(N2c3nc(N4CCOCC4)cc(=O)n3CC[C@H]2C(F)(F)F)cc1 [Example 27, (8S)-9-(4-methoxyphenyl)-2-(morpholin-4-yl)-8-(trifluoromethyl)-6,7,8,9-tetrahydro-4H-pyrimido[1,2-a]pyrimidin-4-one] | – | 36%
5 | – | 676 nM | – | COc1ccc(C(C)N2c3nc(N4CCOCC4)cc(=O)n3CC[C@H]2C(F)(F)F)cc1 (mixture of isomers) [Example 9, (8S)-9-[(1R and 1S)-1-(4-methoxyphenyl)ethyl]-2-(morpholin-4-yl)-8-(trifluoromethyl)-6,7,8,9-tetrahydro-4H-pyrimido[1,2-a]pyrimidn-4-one] | – | –
6 | 103 nM | – | 9 nM | COc1ccccc1CCN1c2nc(N3CCOCC3)cc(=O)n2CC[C@H]1C(F)(F)F [Example 24, (8S)-9-[2-(2-methoxyphenyl)ethyl]-2-(morpholin-4-yl)-8-(trifluoromethyl)-6,7,8,9-tetrahydro-4H-pyrimido[1,2-a]pyrimidin-4-one] | 40% | 100%

Further lines, the molecule ahead of its results:

Row | Structure (SMILES) | IC50 [1] | IC50 [2] | IC50 [4] | inhibition at 0.1 µM [3] | inhibition at 1 µM [3]
7 | O=c1cc(N2CCOCC2)nc2n1CC[C@@H](C(F)(F)F)N2C[C@@H](O)c1cccc(O)c1 [Example 49, 9-[(S)-2-Hydroxy-2-(3-hydroxyphenyl)ethyl]-2-morpholin-4-yl-8-(S)-trifluoromethyl-6,7,8,9-tetrahydropyrimido[1,2-a]pyrimidin-4-one] | – | – | – | 81% | 99%
8 | O=c1cc(N2CCOCC2)nc2n1CC[C@@H](C(F)(F)F)N2C[C@@H](O)c1cc2ccccc2s1 [Example 48, 9-((R)-2-Benzo[b]thiophen-2-yl-2-hydroxyethyl)-2-morpholin-4-yl-8-(S)-trifluoromethyl-6,7,8,9-tetrahydro-pyrimido[1,2-a]pyrimidin-4-one] | – | – | – | 89% | 96%
9 | CN(C)CC(=O)Nc1cccc([C@H](O)CN2c3nc(N4CCOCC4)cc(=O)n3CC[C@H]2C(F)(F)F)c1 [Example 50, 2-Dimethylamino-N-{3-[(S)-1-hydroxy-2-((S)-8-morpholin-4-yl-6-oxo-2-trifluoromethyl-3,4-dihydro-2H,6H-pyrimido[1,2-a]pyrimidin-1-yl)ethyl]phenyl}acetamide] | – | – | – | 79% | 99%
10 | O=c1cc(N2CCOCC2)nc2n1CC[C@@H](C(F)(F)F)N2CC(O)Cc1ccccc1 (stereo partly drawn) [Example 55, 9-(2-Hydroxy-3-phenylpropyl)-2-morpholin-4-yl-8-(S)-trifluoromethyl-6,7,8,9-tetrahydropyrimido[1,2-a]pyrimidin-4-one] | – | – | – | 81% | 93%
11 | COc1cc(F)ccc1[C@H](O)CN1c2nc(N3CCOCC3)cc(=O)n2CC[C@H]1C(F)(F)F [Example 52, 9-[(S)-2-(4-Fluoro-2-methoxyphenyl)-2-hydroxyethyl]-2-morpholin-4-yl-8-(S)-trifluoromethyl-6,7,8,9-tetrahydro-pyrimido[1,2-a]pyrimidin-4-one] | – | – | – | 75% | 99%
12 | O=c1cc(N2CCOCC2)nc2n1CC[C@@H](C(F)(F)F)N2CCc1ccc(O)cc1 [Example 56, 9-[2-(4-Hydroxyphenyl)ethyl]-2-morpholin-4-yl-8-(S)-trifluoromethyl-6,7,8,9-tetrahydropyrimido[1,2-a]pyrimidin-4-one] | – | – | – | 94% | 99%
